Measured values taken from PMC5520944 (Cell Death & Disease, 2017).
Like-named read-outs stand apart in the source and are kept apart here.

Legend:
Assay in all cases: cells
[1] = tested on: L929sAhFas; design: high-content necroptosis screen, percentage PI-positive nuclei as percent of DMSO plus stimulus control
From the text: To identify novel inhibitors or regulators of necroptosis, 500 small compounds from libraries targeting autophagy, kinases, phosphatases, proteases and redox balance were screened for their ability to block TNF-induced necroptosis in murine L929sAhFas cells. Three conditions were used to induce necroptosis in L929 cells: TNF alone, TNF+TAK1 inhibitor (TAK1i) and TNF+zVAD-fmk, a pan-caspase inhibitor. Inhibition of TAK1 or caspases sensitizes to necroptosis.[13], [32] Necroptosis, measured as the percentage of PI-positive nuclei normalized to the plate-specific DMSO control, was determined for each compound (Supplementary Figure 1A). […] After compound treatment, L929sAhFas (a) or L929 (b) cells were stimulated with mTNF (T), mTNF+Tak1i (TiT) or mTNF+zVAD (zVT) (Supplementary Figure 1A and B). (a) Cell death percentage (% PI-positive nuclei) or cell loss was calculated as percent of control (DMSO+stimulus). […] (b) Cell loss (luminescence-based readout for ATP) was calculated as percent of control (DMSO+stimulus). […] In stimulated conditions, % PI-positive nuclei was determined as % of DMSO control. Data represent mean values±S.E.M. of two independent experiments. Cells were stained with Hoechst and PI and percentage PI-positive nuclei was determined using high-content image analysis (BD pathway Bioimager). (d) L929sAhFas cells were treated with Sorafenib (concentration as indicated) for 24 h. Then, stimulus was removed, 50 cells/condition seeded and colonies counted with crystal violet staining after 10 days incubation. […] Schemes of workflow screening assays in L929 cell lines. (A) Scheme of the workflow of a high-content screening assay on L929sAhFas cells using mTNF (T) and mTNF+Tak1i ((5Z)-7-Oxozeaenol) (TiT) to induce necroptotic cell death. Nec-1 and zVAD-fmk were used as protective and sensitizing benchmarks, respectively, on all plates. (B) Scheme of the workflow of a CellTiter-Glo luminescent cell viability screening assay on L929 cells using mTNF+zVAD (zVT) to induce necroptotic cell death. Supplementary Figure S2. Z’ calculation for cell death screening assays in L929 cells. (A) Z’ calculation for cell death screening assay (Fig. 1A) in mTNF-stimulated L929sAhFas cells. (B) Z’ calculation for cell death screening assay (Fig. 1A) in L929sAhFas cells stimulated with mTNF + Taki.

[2] = tested on: L929sAhFas; design: high-content necroptosis screen, percentage PI-positive nuclei as percent of DMSO plus stimulus control; conditions: mTNF-induced cell death, validation screen; read-out: Validation screen IC50 (µM) (TNF)
From the text: To identify novel inhibitors or regulators of necroptosis, 500 small compounds from libraries targeting autophagy, kinases, phosphatases, proteases and redox balance were screened for their ability to block TNF-induced necroptosis in murine L929sAhFas cells. Three conditions were used to induce necroptosis in L929 cells: TNF alone, TNF+TAK1 inhibitor (TAK1i) and TNF+zVAD-fmk, a pan-caspase inhibitor. Inhibition of TAK1 or caspases sensitizes to necroptosis.[13], [32] Necroptosis, measured as the percentage of PI-positive nuclei normalized to the plate-specific DMSO control, was determined for each compound (Supplementary Figure 1A). Z’ values for the TNF- and TNF+TAK1i-induced cell death assay were 0.498 and 0.919, respectively (Supplementary Figures 2A and B), indicating good assay performance. Sorafenib was identified as an effective inhibitor of both TNF- and TNF+TAK1i-induced necroptosis (Figure 1a). […] In an independent screening with 437 FDA-approved drugs and TNF+zVAD-fmk as necroptosis trigger in L929 cells (Supplementary Figure 1B), Sorafenib was also shown to be a potent inhibitor (Figure 1b). […] After compound treatment, L929sAhFas (a) or L929 (b) cells were stimulated with mTNF (T), mTNF+Tak1i (TiT) or mTNF+zVAD (zVT) (Supplementary Figure 1A and B). (a) Cell death percentage (% PI-positive nuclei) or cell loss was calculated as percent of control (DMSO+stimulus). Green points marked by the green dotted line represent a selection of kinase inhibitors from the screening on L929sAhFas cells (Supplementary Table 1), that are only slightly protective in the TNF-stimulated condition. (b) Cell loss (luminescence-based readout for ATP) was calculated as percent of control (DMSO+stimulus). […] In stimulated conditions, % PI-positive nuclei was determined as % of DMSO control. Data represent mean values±S.E.M. of two independent experiments. Cells were stained with Hoechst and PI and percentage PI-positive nuclei was determined using high-content image analysis (BD pathway Bioimager). (d) L929sAhFas cells were treated with Sorafenib (concentration as indicated) for 24 h. Then, stimulus was removed, 50 cells/condition seeded and colonies counted with crystal violet staining after 10 days incubation. Quantification was performed using ImageJ. n=2, a representative experiment is shown Legends supplementary figures Supplementary Figure S1. Schemes of workflow screening assays in L929 cell lines. (A) Scheme of the workflow of a high-content screening assay on L929sAhFas cells using mTNF (T) and mTNF+Tak1i ((5Z)-7-Oxozeaenol) (TiT) to induce necroptotic cell death. Nec-1 and zVAD-fmk were used as protective and sensitizing benchmarks, respectively, on all plates. (B) Scheme of the workflow of a CellTiter-Glo luminescent cell viability screening assay on L929 cells using mTNF+zVAD (zVT) to induce necroptotic cell death. Supplementary Figure S2. Z’ calculation for cell death screening assays in L929 cells. (A) Z’ calculation for cell death screening assay (Fig. 1A) in mTNF-stimulated L929sAhFas cells. (B) Z’ calculation for cell death screening assay (Fig. 1A) in L929sAhFas cells stimulated with mTNF + Taki.

[3] = tested on: Molm13; design: species or system Jurkat FADD-/-, HT-29, MV4-11 or Molm13; protection from induced necroptosis, cell death by PI staining and flow cytometry; conditions: Homo sapiens, MOLM-13; BV6 + zVAD; inhibition of induced cell death
Description: (§1) Figure 2 Sorafenib inhibits TNF-induced RIPK1-dependent cell death in both murine and human cell lines and rescues AML cells from Smac mimetic-induced necroptosis. […] (c,d) HT-29 and Jurkat FADD−/− cells were pretreated for 1 h with DMSO, Nec-1 or Sorafenib (concentrations as indicated) and stimulated for 6 h with 30 ng/ml hTNF, 1 μM BV6 and 30 μM zVAD (HT-29) or stimulated for 10 h with 100 ng/ml hTNF (Jurkat FADD−/−). (a-d) Data were normalized to DMSO-treated control cells and represent the mean value±S.E.M. of three independent experiments. Toxic concentrations were removed from the analysis. L929sAhFas and MEF cells were stained with Hoechst and PI and percentage PI-positive nuclei was determined using high-content image analysis (BD pathway Bioimager). For HT-29 and Jurkat FADD−/− cells, cell death was determined by PI staining and flow cytometry. […] Cell death in AML cells was determined by PI staining and flow cytometry. Mean and S.D. of three independent experiments performed in triplicate are shown Supplementary materials and methods Immunoblotting. After treatments, cells were washed twice with PBS and lysed with Laemmli buffer (2x) directly or with NP-40 lysis buffer (150 mM NaCl, 1% NP-40, 10% glycerol, 10 mM Tris-HCl pH 8) supplemented with EDTA-free protease inhibitor cocktail tablets (Roche Diagnostics, Basel, Switzerland, #11873580001) and phosphatase inhibitor cocktail tablets (Roche Diagnostics, #04906837001). After lysis with NP-40 lysis buffer, lysates were kept 10 minutes on ice and centrifugated in a microcentrifuge (10 min, 13.000 rpm, 4°C). Supernatant was used for SDS-PAGE and immunoblotting. FACS analysis. FACS analysis was used to measure dying HT-29, Jurkat FADD-/- and AML cells. Treated HT-29 cells were harvested, washed with PBS and incubated with Annexin V binding buffer (BD Biosciences, 556454) containing 7-AAD and Annexin V-FITC for 15 min according to the manufacturer’s protocol. FACSCalibur^TM Flow Cytometer (BD Biosciences) and CellQuest Pro software were used to perform experiments and analyze data respectively.

[4] = tested on: MV4-11; design: species or system Jurkat FADD-/-, HT-29, MV4-11 or Molm13; protection from induced necroptosis, cell death by PI staining and flow cytometry; conditions: Homo sapiens, BV6 + zVAD, inhibition of induced cell death
Description: as §1

[5] = tested on: L929sAhFas; design: species or system L929sAhFas or MEF; protection from TNF-induced cell death, percentage PI-positive nuclei by high-content imaging; conditions: mTNF; inhibition of induced cell death
Description: Figure 2 Sorafenib inhibits TNF-induced RIPK1-dependent cell death in both murine and human cell lines and rescues AML cells from Smac mimetic-induced necroptosis. […] (c,d) HT-29 and Jurkat FADD−/− cells were pretreated for 1 h with DMSO, Nec-1 or Sorafenib (concentrations as indicated) and stimulated for 6 h with 30 ng/ml hTNF, 1 μM BV6 and 30 μM zVAD (HT-29) or stimulated for 10 h with 100 ng/ml hTNF (Jurkat FADD−/−). (a-d) Data were normalized to DMSO-treated control cells and represent the mean value±S.E.M. of three independent experiments. Toxic concentrations were removed from the analysis. L929sAhFas and MEF cells were stained with Hoechst and PI and percentage PI-positive nuclei was determined using high-content image analysis (BD pathway Bioimager). For HT-29 and Jurkat FADD−/− cells, cell death was determined by PI staining and flow cytometry. […] Cell death in AML cells was determined by PI staining and flow cytometry. Mean and S.D. of three independent experiments performed in triplicate are shown To confirm the inhibition of TNF-induced necroptosis by Sorafenib, we tested a panel of murine (L929sAhFas and MEF) and human cell lines (HT-29, Jurkat FADD^-/-, and two AML cell lines MV4-11 and Molm13). Smac mimetic BV6[34] instead of TAK1i was used as a sensitizer for testing of mouse embryonic fibroblasts (MEF) and human cell lines. […]

[6] = tested on: MEF; design: species or system L929sAhFas or MEF; protection from TNF-induced cell death, percentage PI-positive nuclei by high-content imaging; conditions: Mus musculus
Description: (c,d) HT-29 and Jurkat FADD−/− cells were pretreated for 1 h with DMSO, Nec-1 or Sorafenib (concentrations as indicated) and stimulated for 6 h with 30 ng/ml hTNF, 1 μM BV6 and 30 μM zVAD (HT-29) or stimulated for 10 h with 100 ng/ml hTNF (Jurkat FADD−/−). (a-d) Data were normalized to DMSO-treated control cells and represent the mean value±S.E.M. of three independent experiments. Toxic concentrations were removed from the analysis. L929sAhFas and MEF cells were stained with Hoechst and PI and percentage PI-positive nuclei was determined using high-content image analysis (BD pathway Bioimager). For HT-29 and Jurkat FADD−/− cells, cell death was determined by PI staining and flow cytometry. […] Cell death in AML cells was determined by PI staining and flow cytometry. […] Smac mimetic BV6[34] instead of TAK1i was used as a sensitizer for testing of mouse embryonic fibroblasts (MEF) and human cell lines. […] Since Sorafenib is used to treat AML,[27] we also included two AML cell lines to investigate whether it alters the sensitivity of these cells to necroptotic stimuli (BV6 in the presence of zVAD-fmk).[34]

[7] = read-out: cell death TNF/Taki (POC)

CC(C)(C)c1cc(C=C(C#N)C#N)cc(C(C)(C)C)c1O [TYRPHOSTIN 9]
activity at 10 µM ([1]; read-out: cell death TNF (POC)): 41.8%
activity at 10 µM [1, 7]: 95.8%
IC50 [2]: 4.45 µM

CN1C(=O)NC(Cc2c[nH]c3c(Cl)cccc23)C1=O (centres unmarked) [Nec-1s]
IC50 [3]: 280 ± 170 nM
IC50 [4]: 150 ± 10 nM
IC50 [5]: 240 ± 120 nM
IC50 ([6]; mTNF + BV6 + zVAD, inhibition of induced cell death): 630 ± 250 nM
IC50 ([6]; mTNF + BV6, inhibition of induced cell death): 380 ± 50 nM

N#C/C(=C\c1ccc(O)c(O)c1)C(=O)NCc1ccccc1 [AG-490]
activity at 10 µM ([1]; read-out: cell death TNF (POC)): 74.2%
activity at 10 µM [1, 7]: 97.3%
IC50 [2]: 87.3 µM

COc1cc2ncc(-c3ccccc3)nc2cc1OC [AG-1296]
activity at 10 µM ([1]; read-out: cell death TNF (POC)): 77.6%
activity at 10 µM [1, 7]: 93.6%
IC50 [2]: 33.2 µM

CN(C)c1ccc(/C=C2\C(=O)Nc3ccccc32)cc1 [SU 4312]
activity at 10 µM ([1]; read-out: cell death TNF (POC)): 69.6%
activity at 10 µM [1, 7]: 96.8%
IC50 [2]: 26.4 µM

N#C/C(=C\c1ccc(O)c(O)c1)C(=O)Nc1ccccc1 [AG-494]
activity at 10 µM ([1]; read-out: cell death TNF (POC)): 58.6%
activity at 10 µM [1, 7]: 95.8%
IC50 [2]: 32.3 µM
